Results: patent publication US11560370B1, “5-membered heteroaryl carboxamide compounds for treatment of HBV” (Assembly Biosciences, Inc., priority 2018, dated 2023)

system: HBV; test: Viral production from HepAD38 cells, viral load by qPCR of HBV core sequence; type: cell-based; details: 5 days, supernatant HBV DNA by qPCR, read-out: Viral Load EC50 Activity range
Method: Assay Measuring Activity of Test Compounds on Viral Production from HepAD38 Cells
HepAD38 cells grown in a T-150 flask (Corning, cat #: 430825) with Growth Medium (DMEM/F12 (1:1) (Hyclone, cat #: SH30023.02), 1× Pen/Strep (Invitrogen, cat #: 15140-122), 10% FBS (Tissue Culture Biologics, cat #: 101), 250 μg/mL G418 (Alfa Aesar, cat #: J62671), 1 μg/mL Tetracycline (Teknova, cat #: T3320)) were detached with 0.25% trypsin-EDTA to (Invitrogen, cat #: 25200-056). Tetracycline-free treatment medium (15 mL DMEM/F12 (1:1) 1× Pen/step, with 2% FBS, Tet-system approved (Clontech, cat #: 631106) were then added to mix, transferred into a 50 ml conical tube (Falcon, cat #: 21008-918,) and spun at 1300 rpm for 5 min. Pelleted cells were then re-suspended/washed with 50 mL of 1×DPBS (Invitrogen, cat #: 14190-136) 2 times and 50 mL treatment medium twice. HepAD38 cells were then re-suspended with 10 mL of treatment medium, syringed and counted. Wells of 96-well clear bottom TC plate (Corning, cat #: 3904,) were seeded at 50,000 cells/well in 180 μL of treatment medium, and 20 μL of either 10% DMSO (Sigma, cat #: D4540) as controls or a 10× solution of test compounds in 10% DMSO in treatment media was added for a final compound concentration starting at 10 μM, and plates were incubated in 5% CO2 incubator at 37° C. for 5 days.
Subsequently viral load production was assayed by quantitative PCR (qPCR) of the HBV core sequence. PCR reaction mixture containing forward primers HBV-f 5′-CTGTGCCTTGGGTGGCTTT-3′ (IDT DNA), Reverse primers HBV-r 5′-[…]-3′ (IDT DNA), Fluorescent TaqMan™ Probes HBV-probe 5′-FAM/AGCTCCAAA/ZEN/[…]/3IABkFQ-3′ (IDT DNA), 10 μL/well of PerfeCTa® qPCR ToughMix® (Quanta Biosciences, Cat #: 95114-05K), and 6 μL/well of DEPC water (Alfa Aesar, cat #: J62087) was prepared. […] of supernatant was added to 16 μL of the reaction mixture in a qPCR plate (Applied Biosytems, Cat #: 4309849), sealed with a film (Applied Biosystems, Cat #: 4311971), centrifuged for a few seconds, and subsequently run on an Applied Biosystems VIIA7. The PCR mixture was incubated at 45° C. for 5 min, then 95° C. for 10 min, followed by 40 cycles of 10 seconds at 95° C. and 20 seconds at 60° C. Viral load was quantified against known HBV DNA standards by using ViiA™ 7 Software. Viral load in the supernatant from wells with treated cells were compared against viral load in supernatant from DMSO control wells (>3 per plate). Cell viability assay was performed with CellTiter-Glo Luminescent Cell Viability Assay (Promega, cat #: G7573) with modification. Mixed appropriate amount of CellTiter-Glo (CTG) 1×DPBS in a 1:1 ratio, added 100 uL of the mixture to each well followed completely removal of all supernatant in each well without touching cell surface. Incubated the plate at room temperature for 10 min on an orbital shaker, and then read the plate with a plate reader (TECAN M1000 or Envision). EC50 or CC50 values were calculated through curve-fitting of the four-parameter nonlinear-logistic-regression model (GraphPad Prism or Dotmatics). CC50 values were all >10 μM.

Row | Structure (SMILES) | EC50
1 | Cn1cc(C2CCC(c3nn(C)c(N)c3C(=O)Nc3ccc(F)c(Cl)c3)C2)cn1 (single isomer, unassigned) [AIA-004-D, 5-Amino-N-(3-chloro-4-fluorophenyl)-1-methyl-3-(3-(1-methyl-1H-pyrazol-4-yl)cyclopentyl)-1H-pyrazole-4-carboxamide] | < 100 nM
2 | Cn1nc(C2CC3C[S+]([O-])CC3C2)c(C(=O)Nc2ccc(F)c(Cl)c2)c1N (single isomer, unassigned) [AIA-056-B, 5-Amino-N-(3-chloro-4-fluorophenyl)-1-methyl-3-(2-oxidohexahydro-1H-cyclopenta[c]thiophen-5-yl)-1H-pyrazole-4-carboxamide] | 500 to 10000 nM
3 | CC(=O)N1CC2CC(c3nn(C)c(N)c3C(=O)Nc3ccc(F)c(Cl)c3)CC2C1 (stereo not shown) [AIA-007] | < 100 nM
4 | CC(C)OCC1(O)CC2CC(c3nn(C)c(N)c3C(=O)Nc3ccc(F)c(Cl)c3)CC2C1 (single isomer, unassigned) [AIA-339-1, 5-Amino-N-(3-chloro-4-fluorophenyl)-3-(5-hydroxy-5-(isopropoxymethyl)octahydropentalen-2-yl)-1-methyl-1H-pyrazole-4-carboxamide] | 500 to 10000 nM
5 | Cn1cc(C(=O)Nc2ccc(F)c(Cl)c2)c(C2CC3CC(=O)CC3C2)n1 (stereo not shown) [AIA-394] | 500 to 10000 nM
6 | CNC1CC2CC(c3nn(C)c(N)c3C(=O)Nc3ccc(F)c(Cl)c3)CC2C1 (stereo not shown) [AIA-102] | 100 to 500 nM

same assay, conditions: Hepatitis B virus, HePAD38, 120 h, 5 days, supernatant HBV DNA by qPCR, read-out: Viral Load EC50 Activity range

Row | Structure (SMILES) | EC50
7 | COc1ccc([C@@H]2CC[C@H](c3nn(C)c(N)c3C(=O)Nc3ccc(F)c(Cl)c3)C2)cc1 [AIA-003-C, 5-Amino-N-(3-chloro-4-fluorophenyl)-3-((1S,3R)-3-(4-methoxyphenyl)cyclopentyl)-1-methyl-1H-pyrazole-4-carboxamide] | 100 to 500 nM
8 | Cn1nc(C2CC3CC(O)(CSC(C)(C)C)CC3C2)c(C(=O)Nc2ccc(F)c(Cl)c2)c1N (single isomer, unassigned) [AIA-262-2, 5-Amino-3-(5-((tert-butylthio)methyl)-5-hydroxyoctahydropentalen-2-yl)-N-(3-chloro-4-fluorophenyl)-1-methyl-1H-pyrazole-4-carboxamide] | < 100 nM
9 | Cn1nc(C2CC3CC(O)(C[S+]([O-])CC(F)(F)F)CC3C2)c(C(=O)Nc2ccc(F)c(Cl)c2)c1N (stereo not shown) [AIA-259-A, 5-Amino-N-(3-chloro-4-fluorophenyl)-3-((2r,5r)-5-hydroxy-5-((2,2,2-trifluoroethylsulfinyl)methyl)octahydropentalen-2-yl)-1-methyl-1H-pyrazole-4-carboxamide] | < 100 nM
10 | Cn1nc(C2CC3CN(C(=O)N4CCCC4)CC3C2)c(C(=O)Nc2ccc(F)c(Cl)c2)c1N (stereo not shown) [AIA-025, 5-Amino-N-(3-chloro-4-fluorophenyl)-1-methyl-3-(2-(pyrrolidine-1-carbonyl)octahydrocyclopenta[c]pyrrol-5-yl)-1H-pyrazole-4-carboxamide] | < 100 nM
11 | Cn1nc(C2CC(c3ccccc3)C2)c(C(=O)Nc2ccc(F)c(Cl)c2)c1N (single isomer, unassigned) [AIA-224B, 5-Amino-N-(3-chloro-4-fluorophenyl)-1-methyl-3-(3-phenylcyclobutyl)-1H-pyrazole-4-carboxamide] | 100 to 500 nM
12 | CC(C)Oc1ccc(C2CCC(c3nn(C)c(N)c3C(=O)Nc3ccc(F)c(Cl)c3)C2)cc1 (stereo not shown) [AIA-296, 5-Amino-N-(3-chloro-4-fluorophenyl)-3-(3-(4-isopropoxyphenyl)cyclopentyl)-1-methyl-1H-pyrazole-4-carboxamide] | < 100 nM
13 | Cn1nc([C@@H]2CC[C@@H](c3cnc(C(F)(F)F)s3)C2)c(C(=O)Nc2ccc(F)c(Cl)c2)c1N [AIA-354, 5-Amino-N-(3-chloro-4-fluorophenyl)-1-methyl-3-((1R,3R)-3-(2-(trifluoromethyl)thiazol-5-yl)cyclopentyl)-1H-pyrazole-4-carboxamide] | 500 to 10000 nM
14 | Cn1cc(C2CCC(c3nn(C)c(N)c3C(=O)Nc3ccc(F)c(Cl)c3)C2)cn1 (single isomer, unassigned) [AIA-004-B, 5-Amino-N-(3-chloro-4-fluorophenyl)-1-methyl-3-(3-(1-methyl-1H-pyrazol-4-yl)cyclopentyl)-1H-pyrazole-4-carboxamide] | 100 to 500 nM
15 | Cn1nc(C2CCC(c3csc(C(F)(F)F)n3)C2)c(C(=O)Nc2ccc(F)c(Cl)c2)c1N (stereo not shown) [AIA-355, 5-Amino-N-(3-chloro-4-fluorophenyl)-1-methyl-3-(3-(2-(trifluoromethyl)thiazol-4-yl)cyclopentyl)-1H-pyrazole-4-carboxamide] | 500 to 10000 nM
16 | COC(=O)N1CC2CC(c3nn(C)c(N)c3C(=O)Nc3ccc(F)c(Cl)c3)CC2C1 (stereo not shown) [AIA-022] | < 100 nM
17 | Cn1nc(C2CC3CC(O)(C(=O)NC4CC4)CC3C2)c(C(=O)Nc2ccc(F)c(Cl)c2)c1N (stereo not shown) [AIA-274-1, 5-Amino-N-(3-chloro-4-fluorophenyl)-3-(5-(cyclopropylcarbamoyl)-5-hydroxyoctahydropentalen-2-yl)-1-methyl-1H-pyrazole-4-carboxamide] | < 100 nM
18 | Cn1nc(C2CC3CC(O)(CS(=O)(=O)CCO)CC3C2)c(C(=O)Nc2ccc(F)c(Cl)c2)c1N (single isomer, unassigned) [AIA-266-1, 5-Amino-N-(3-chloro-4-fluorophenyl)-3-(5-hydroxy-5-(((2-hydroxyethyl)sulfonyl)methyl)octahydropentalen-2-yl)-1-methyl-1H-pyrazole-4-carboxamide] | < 100 nM
19 | CNC(=O)C1CC2CC(c3nn(C)c(N)c3C(=O)Nc3ccc(F)c(Cl)c3)CC2C1 (stereo not shown) [AIA-016, 5-Amino-N-(3-chloro-4-fluorophenyl)-1-methyl-3-(5-(methylcarbamoyl)octahydropentalen-2-yl)-1H-pyrazole-4-carboxamide] | < 100 nM
20 | Cn1nc(C2CC3CC(O)(CSCC(F)(F)F)CC3C2)c(C(=O)Nc2ccc(F)c(Cl)c2)c1N (single isomer, unassigned) [AIA-258-2, 5-Amino-N-(3-chloro-4-fluorophenyl)-3-(5-hydroxy-5-(((2,2,2-trifluoroethyl)thio)methyl)octahydropentalen-2-yl)-1-methyl-1H-pyrazole-4-carboxamide] | < 100 nM
21 | CC(=O)Nc1ccc(C2CCC(c3nn(C)c(N)c3C(=O)Nc3ccc(F)c(Cl)c3)C2)cc1 (stereo not shown) [AIA-294, 3-(3-(4-Acetamidophenyl)cyclopentyl)-5-amino-N-(3-chloro-4-fluorophenyl)-1-methyl-1H-pyrazole-4-carboxamide] | < 100 nM
22 | CN(C)C(=O)CC1(O)CC2CC(c3nn(C)c(N)c3C(=O)Nc3ccc(F)c(Cl)c3)CC2C1 (stereo not shown) [AIA-270, 5-Amino-N-(3-chloro-4-fluorophenyl)-3-(5-(2-(dimethylamino)-2-oxoethyl)-5-hydroxyoctahydropentalen-2-yl)-1-methyl-1H-pyrazole-4-carboxamide] | < 100 nM
23 | CN1CC2CC(c3nn(C)c(N)c3C(=O)Nc3ccc(F)c(Cl)c3)CC2C1 (stereo not shown) [AIA-052, 5-Amino-N-(3-chloro-4-fluorophenyl)-1-methyl-3-(2-methyloctahydrocyclopenta [c]pyrrol-5-yl)-1H-pyrazole-4-carboxamide] | 500 to 10000 nM
24 | CCS(=O)(=O)C1CC2CC(c3nn(C)c(N)c3C(=O)Nc3ccc(F)c(Cl)c3)CC2C1 (stereo not shown) [AIA-031, 5-Amino-N-(3-chloro-4-fluorophenyl)-3-(5-(ethylsulfonyl)octahydropentalen-2-yl)-1-methyl-1H-pyrazole-4-carboxamide] | < 100 nM
25 | COCCOc1ccc(C2CCC(c3nn(C)c(N)c3C(=O)Nc3ccc(F)c(Cl)c3)C2)cc1 (stereo not shown) [AIA-297, 5-Amino-N-(3-chloro-4-fluorophenyl)-3-(3-(4-(2-methoxyethoxy)phenyl)cyclopentyl)-1-methyl-1H-pyrazole-4-carboxamide] | < 100 nM
